ChEMBL document CHEMBL1123992, “Benzo[1,2-c:5,4-c']dipyrazoles: non-xanthine adenosine antagonists” (J Med Chem, 1988)

Assays:
Cavia porcellus [1] = species: Cavia porcellus; experiment: Reversal of spasmogen-induced contraction of guinea pig cylindrical tracheal segments induced by 5-hydroxytryptamine (2x 10e-6 M); type: functional; settings: Trachea, read-out: ED50 (the source's name)
Cavia porcellus [2] = species: Cavia porcellus; experiment: Reversal of spasmogen-induced contraction of guinea pig cylindrical tracheal segments induced by acetylcholine (1 x 10e -5 M); type: functional; settings: Trachea, read-out: ED50 (the source's name)
Cavia porcellus [3] = species: Cavia porcellus; experiment: Reversal of spasmogen-induced contraction of guinea pig cylindrical tracheal segments induced by histamine (1 x 10e -5 M); type: functional; settings: Trachea, read-out: ED50 (the source's name)
Adenosine A2 receptor [4] = target: Adenosine A2 receptor (Homo sapiens, UniProt P29275+P29274); experiment: In vitro binding affinity to Adenosine A2 receptor of human platelets by inhibition of NECA-stimulated adenylate cyclase; type: functional
Adenosine receptor A1 [5] = target: T1, Adenosine receptor A1 (Rattus norvegicus, UniProt P25099); experiment: In vitro binding affinity to Adenosine A1 receptor of rat cerebral cortical membranes using 1 nM [3H]PIA
T1 sequence (P25099 whole entry): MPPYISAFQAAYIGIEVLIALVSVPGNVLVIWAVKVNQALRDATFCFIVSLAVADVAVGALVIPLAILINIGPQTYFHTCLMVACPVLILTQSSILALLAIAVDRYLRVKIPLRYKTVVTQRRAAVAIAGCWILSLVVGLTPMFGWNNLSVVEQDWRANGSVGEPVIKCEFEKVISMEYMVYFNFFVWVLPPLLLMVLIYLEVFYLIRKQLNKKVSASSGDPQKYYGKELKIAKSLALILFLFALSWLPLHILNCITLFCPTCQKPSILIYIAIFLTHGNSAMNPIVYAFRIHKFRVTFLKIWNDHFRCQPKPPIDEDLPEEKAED

Cavia porcellus [6] = species: Cavia porcellus; experiment: Reversal of spasmogen-induced contraction of guinea pig cylindrical tracheal segments induced by histamine (1x […] -5 M); type: functional; settings: Trachea, read-out: ED50 (the source's name)
Cavia porcellus [7] = species: Cavia porcellus; experiment: Reversal of spasmogen-induced contraction of guinea pig cylindrical tracheal segments induced by Carbachol (7.4 x 10e -7 M); type: functional; settings: Trachea, read-out: ED50 (the source's name)
Adenosine receptor A1 [8] = target: T1, Adenosine receptor A1; experiment: Binding of 1 nM [3H]CHA to Adenosine A1 receptor of rat cerebral cortical membranes; type: cell membranes, Membrane
Adenosine A2 receptor [9] = target: Adenosine A2 receptor (Rattus norvegicus, UniProt P29276+P30543); experiment: Inhibition of adenosine stimulated accumulation of cyclic AMP at Adenosine A2 receptor of VA13 fibroblasts of rat; type: functional
[10] = target: Adenosine A2 receptor (Cavia porcellus); experiment: Inhibition of 2-CADO-stimulated adenylate cyclase at Adenosine A2 receptor in guinea pig cerebral cortical slices
Cavia porcellus [11] = species: Cavia porcellus; experiment: Reversal of spasmogen-induced contraction of guinea pig cylindrical tracheal segments induced by acetylcholine (1*10e-5 M); type: functional; settings: Trachea, read-out: ED50 (the source's name)
Cavia porcellus [12] = species: Cavia porcellus; experiment: Reversal of spasmogen-induced contraction of guinea pig cylindrical tracheal segments induced by Carbachol (7.4x 10e-7 M); type: functional; settings: Trachea, read-out: ED50 (the source's name)

Compound | EC50 (Cavia porcellus [1]) | EC50 (Cavia porcellus [2]) | Ki (Adenosine A2 receptor [4]) | Ki (Adenosine receptor A1 [5]) | EC50 (Cavia porcellus [6]) | other results
Cc1nn(C)c2cc3c(cc12)c(C)nn3C | 17 µM |  | 80 µM | > 100 µM | 75 µM | 
CCn1nc(C)c2cc3c(C)nn(CC)c3cc21 | 1.3 µM |  | 56 µM | 27 µM | 5.2 µM | EC50 (Cavia porcellus [7]): 11 µM
Cn1c(=O)[nH]c2[nH]cnc2c1=O [1-METHYLXANTHINE] |  |  |  |  |  | Ki (Adenosine receptor A1 [8]): 9 µM; Ki (Adenosine A2 receptor [9]): 6.6 µM
CCn1c(=O)c2nc[nH]c2n(CC)c1=O |  |  |  |  |  | Ki (Adenosine A2 receptor [9]): 1.2 µM; Ki [10]: 3 µM
Cc1n[nH]c2cc3[nH]nc(C)c3cc12 | 2 µM |  | 25.6 µM | 8 µM |  | EC50 (Cavia porcellus [3]): 1.4 µM; EC50 (Cavia porcellus [11]): 4 µM
Cn1c(=O)c2[nH]cnc2n(C)c1=O [AMINOPHYLLINE] | 21 µM | 57 µM |  |  | 42 µM | 
Cc1n[nH]c2c([N+](=O)[O-])c3[nH]nc(C)c3cc12 | 1.5 µM | 25 µM | 14.4 µM | 1.9 µM | 6.4 µM | 
O=c1[nH]c(=O)c2nc[nH]c2[nH]1 [XANTHINE] |  |  |  |  |  | Ki (Adenosine A2 receptor [9]): 130 µM

Continued, in another order:

EC50 (Cavia porcellus [1]) | EC50 (Cavia porcellus [2]) | Ki (Adenosine A2 receptor [4]) | Ki (Adenosine receptor A1 [5]) | EC50 (Cavia porcellus [6]) | Compound | other results
0.9 µM | 2 µM |  |  |  | Cc1n[nH]c2c(Br)c3[nH]nc(C)c3cc12 | EC50 (Cavia porcellus [3]): 3 µM
20 µM |  | 170 µM | 54 µM | 38 µM | Cc1nn(C)c2c(C)c3c(cc12)c(C)nn3C | EC50 (Cavia porcellus [7]): 9.6 µM
4.6 µM | 8.5 µM | 4.8 µM | 1.2 µM | 24 µM | Cc1n[nH]c2c(C)c3[nH]nc(C)c3cc12 | 
13 µM |  | 32 µM | 10.5 µM | 41 µM | CCCn1nc(C)c2cc3c(C)nn(CCC)c3cc21 | EC50 (Cavia porcellus [7]): 69 µM
 | 4.3 µM | 53 µM | 20 µM | 4.1 µM | CCn1nc(C)c2cc3c(C)nn(CC)c3c(C)c21 | EC50 (Cavia porcellus [12]): 1 µM
